Test results: article PMC4769596 (Biochemical pharmacology, 2014)
pEC50: −log10 of the molar value. Where two headings read alike, the source gives them in different places.

Legend:
[1] = system: antinociception; conditions: cited from earlier work
[2] = Chronic treatment, body weight; conditions: 10 mg/kg/day p.o. for 5 days
[3] = system: castor oil-induced diarrhea in δOR−/− mice; assay: Castor oil-induced diarrhea in δOR−/− mice; format: in vivo; conditions: for castor oil induced fecal output (fecal weight): 4 h; for castor oil-induced decrease in body weight: 5 or 10 mg/kg p.o., 4 h after castor oil
[4] = system: castor oil-induced diarrhea in WT mice; format: in vivo; conditions: for effect on body weight change in presence of naltrexone: WT and δOR−/− mice; for reduction in castor oil-induced diarrhea after naltrexone pre-treatment: 10 mg/kg p.o., naltrexone 10 mg/kg i.p. 20 min before; for castor oil-induced diarrhea (diarrhea score): 5 or 10 mg/kg p.o. 15 min before castor oil; for castor oil-induced diarrhea (diarrhea score) / castor oil induced fecal output (fecal weight): 4 h; for castor oil induced fecal output (fecal weight) / castor oil-induced decrease in body weight: 5 or 10 mg/kg p.o.
[5] = system: spinal cord membranes from μOR−/− mice; assay: [35S]GTPγS binding, spinal cord membranes from μOR−/− mice; format: biochemical
[6] = biological target: μOR (spinal cord membranes from WT mice) (Mus musculus, UniProt P42866); assay: [35S]GTPγS binding, spinal cord membranes from WT mice; format: biochemical; conditions: spinal cord membranes (10 μg); for Emax (% basal), [35S]GTPγS binding: basal = 100%
Sequence of μOR (spinal cord membranes from WT mice) (P42866 whole entry): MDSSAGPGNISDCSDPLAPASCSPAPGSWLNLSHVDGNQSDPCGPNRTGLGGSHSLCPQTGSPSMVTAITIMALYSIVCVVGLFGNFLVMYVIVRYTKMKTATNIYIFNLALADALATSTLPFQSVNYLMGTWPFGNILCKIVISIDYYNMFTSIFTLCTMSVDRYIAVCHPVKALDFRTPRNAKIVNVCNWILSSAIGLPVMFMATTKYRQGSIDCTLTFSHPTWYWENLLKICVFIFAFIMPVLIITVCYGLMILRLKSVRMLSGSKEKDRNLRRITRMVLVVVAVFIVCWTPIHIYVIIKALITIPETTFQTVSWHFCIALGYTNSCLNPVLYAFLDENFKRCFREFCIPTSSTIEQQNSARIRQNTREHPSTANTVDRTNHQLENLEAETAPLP

[7] = biological target: μOR (spinal cord membranes from δOR−/− mice) (Mus musculus, UniProt P42866); assay: [35S]GTPγS binding, spinal cord membranes from δOR−/− mice; format: biochemical; conditions: spinal cord membranes (10 μg), basal = 100%
Sequence of μOR (spinal cord membranes from δOR−/− mice) (P42866 whole entry): as above

[8] = biological target: μOR (membranes from the ileum of WT mice) (Mus musculus, UniProt P42866); assay: [35S]GTPγS binding, ileal membranes from WT mice; format: biochemical; conditions: 10 μM (Fig. 1G)
Sequence of μOR (membranes from the ileum of WT mice) (P42866 whole entry): as above

[9] = biological target: μOR homomers (μ^βgalOR cells) (Homo sapiens, UniProt P35372); format: cell-based
Sequence of μOR homomers (μ^βgalOR cells) (P35372 whole entry): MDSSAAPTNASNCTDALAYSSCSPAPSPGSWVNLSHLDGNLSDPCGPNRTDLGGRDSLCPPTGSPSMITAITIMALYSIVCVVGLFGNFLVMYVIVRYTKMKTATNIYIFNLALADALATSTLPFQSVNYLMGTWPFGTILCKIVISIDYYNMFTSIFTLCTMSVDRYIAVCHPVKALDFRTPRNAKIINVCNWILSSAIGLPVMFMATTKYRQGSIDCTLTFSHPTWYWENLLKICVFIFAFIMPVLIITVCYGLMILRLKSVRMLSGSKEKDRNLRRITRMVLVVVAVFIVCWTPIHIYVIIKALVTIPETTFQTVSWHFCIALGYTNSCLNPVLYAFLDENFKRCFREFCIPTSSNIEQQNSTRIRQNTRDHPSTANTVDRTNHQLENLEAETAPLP

[10] = system: novel-environment stressed mice; conditions: doses of 5–25 mg/kg; cited from earlier work
[11] = biological target: μOR-δOR heteromers (μ^βgalOR-δOR cells) (Homo sapiens, UniProt P35372+P41143)
Sequence of μOR-δOR heteromers (μ^βgalOR-δOR cells) (P35372 whole entry): as above
Sequence of μOR-δOR heteromers (μ^βgalOR-δOR cells) (P41143 whole entry): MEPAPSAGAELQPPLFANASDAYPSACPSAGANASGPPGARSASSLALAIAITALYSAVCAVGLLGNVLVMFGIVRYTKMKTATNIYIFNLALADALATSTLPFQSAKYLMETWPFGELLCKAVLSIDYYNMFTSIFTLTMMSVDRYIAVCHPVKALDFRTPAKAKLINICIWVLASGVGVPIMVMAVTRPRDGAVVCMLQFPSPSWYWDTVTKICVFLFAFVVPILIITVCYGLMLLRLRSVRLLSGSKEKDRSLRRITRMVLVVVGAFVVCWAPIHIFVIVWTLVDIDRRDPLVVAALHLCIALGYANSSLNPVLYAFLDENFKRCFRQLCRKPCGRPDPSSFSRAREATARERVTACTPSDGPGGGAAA

In the case of `CN1CC[C@]23c4c5ccc(O)c4O[C@H]2[C@H](NC(=O)COCC(=O)NCCCCCCCNC(=O)COCC(=O)Nc2cccc4c6c([nH]c24)[C@@H]2Oc4c(O)ccc7c4[C@@]24CCN(CC2CC2)[C@@H](C7)[C@]4(O)C6)CC[C@@]3(O)[C@H]1C5` [MDAN21], the “antinociceptive potency compared to morphine” value [1] is given as 100 times.

For `CN(C)C(=O)C(CCN1CCC(O)(c2ccc(Cl)cc2)CC1)(c1ccccc1)c1ccccc1` [loperamide], the “changes in body weight” value [2] was “did not lead to significant changes”, the “castor oil-induced diarrhea (diarrhea score)” value ([3]; 5 mg/kg p.o.) was “did not significantly reduce” and the “castor oil induced fecal output (fecal weight)” value (from here on “castor oil induced fecal output”) ([3]; 5 mg/kg p.o.) was “significantly decreased”. For the same compound, the “castor oil-induced diarrhea (diarrhea score)” value ([3]; 10 mg/kg p.o.) was “completely eliminate”, the “castor oil-induced decrease in body weight” value (from here on “castor oil-induced decrease”) [3] was “blocked” and the “effect on body weight change in presence of naltrexone” value ([4]; naltrexone 10 mg/kg i.p.) was “partly blocked”. The “reduction in castor oil-induced diarrhea after naltrexone pre-treatment” value ([4]; WT mice) was “not observed”, the “castor oil-induced diarrhea (diarrhea score)” value ([4]; WT mice) was “reduced” and the “castor oil induced fecal output” value ([4]; WT mice) was “significantly reduces”. The “castor oil-induced decrease” value ([4]; WT mice, 4 h after castor oil) was “blocked”, the “effect on fecal output with coadministration of naltrexone” value ([4]; mouse, in vivo) was “blocked” and the “increase of [35S]GTPγS binding” value [5] was “did not increase”.

In the case of `COc1ccc(CN(C(=O)[C@@H](N)Cc2c(C)cc(C(N)=O)cc2C)[C@@H](C)c2ncc(-c3ccccc3)[nH]2)cc1C(=O)O` [eluxadoline], the pEC50 ([6]; EC50, [35S]GTPγS binding) was about 8.15, the “Emax (% basal), [35S]GTPγS binding” value [6] was ~ 120 % basal and the “changes in body weight” value [2] was “did not lead to significant changes”. The “effect on castor oil-induced body weight change compared to WT mice” value ([3]; 5 mg/kg) was “less effective”, the “castor oil-induced diarrhea (diarrhea score)” value ([3]; 5 mg/kg p.o.) was “did not significantly reduce” and the “castor oil induced fecal output” value ([3]; 5 mg/kg p.o.) was “significantly decreased”. For the same compound, the “castor oil-induced diarrhea (diarrhea score)” value ([3]; 10 mg/kg p.o.) was “partially eliminate”, the “castor oil-induced decrease” value [3] was “blocked” and the “Emax (% basal), [35S]GTPγS binding” value [7] was ~ 143 % basal. The “increase in [35S]GTPγS binding compared to DAMGO or loperamide” value [8] was “higher increase”, the “effect on body weight change in presence of naltrexone” value ([4]; naltrexone 10 mg/kg i.p.) was “partly blocked” and the “fecal output versus vehicle control (constipation)” value ([4]; WT mice, 5 mg/kg, 4 h after castor oil) was “slightly reduced fecal output to below the vehicle control”. The “reduction in castor oil-induced diarrhea after naltrexone pre-treatment” value ([4]; WT mice) was “not observed”, the “castor oil-induced diarrhea (diarrhea score)” value ([4]; WT mice) was “reduced” and the “castor oil induced fecal output” value ([4]; WT mice) was “significantly reduces”. The “castor oil-induced decrease” value ([4]; WT mice, 4 h after castor oil) was “blocked”, the “effect on fecal output with coadministration of naltrexone” value ([4]; WT mice, naltrexone 10 mg/kg i.p.) was “blocked” and the “block of β-arrestin recruitment by μOR-selective antibodies” value [9] was ~ 40%. The constipation [10] was “did not cause constipation”, the “increase of [35S]GTPγS binding” value [5] was “did not increase” and the “block of β-arrestin recruitment by μOR-selective antibodies” value [11] was ~ 17%. The “block of β-arrestin recruitment by μOR-δOR heteromer-selective antibodies” value [11] was 27%.

In the case of `C[C@@H](NC(=O)[C@@H](N)Cc1ccc(O)cc1)C(=O)NCC(=O)N(C)[C@@H](Cc1ccccc1)C(=O)NCCO` [DAMGO, [D-Ala^2, N-MePhe^4, Gly-ol]-enkephalin], the “Emax (% basal), [35S]GTPγS binding” value [6] was ~ 143 % basal, the “Emax (% basal), [35S]GTPγS binding” value [7] was ~ 147 % basal and the “increase of [35S]GTPγS binding” value [5] was “did not increase”.
